What was measured:
SOX2^+ cells of the SLG = assay: Pilocarpine treatment of mice, SOX2/Ki67 immunostaining of sublingual gland; type: in vivo, mouse; conditions: wild-type mice, I.P. 4.5 mg/kg, vs saline
Description: Adult male C57BL/6 mice (aged between 6 and 8 weeks) were treated with pilocarpine (Sigma-Aldrich, P0472; 0.68 mg/ml in 0.9% sterile saline). Mice were anesthetized using isoflurane and injected I.P. with pilocarpine at a dose of 4.5 mg/kg bodyweight (200 μl), or 0.9% saline as a vehicle control. Mice were euthanized after 18 h and glands processed for immunofluorescent analysis. Whole-mount salivary gland and tissue section immunofluorescence analysis has been previously described (Knox et al., 2010). In brief, tissue was fixed with either ice-cold acetone/methanol (1:1) for 1 min or 4% PFA for 20-30 min followed by permeabilizing with 0.1-0.3% Triton X. Tissue was blocked overnight at 4° C. with 10% Donkey Serum (Jackson Laboratories, ME), 1% BSA (Sigma-Aldrich), and MOM IgG-blocking reagent (Vector Laboratories, CA) in 0.01% PBS-Tween 20. […] Antibodies were detected using Cy2-, Cy3-, or Cy5-conjugated secondary Fab fragment antibodies (Jackson Laboratories) and nuclei stained using Hoechst 33342 (1:1,000, Sigma-Aldrich). Fluorescence was analyzed using a Leica Sp5 confocal microscope and NIH ImageJ software. For immunofluorescent analyses (e.g., FIG. 2D), cells positively stained for markers were counted using ImageJ. Acinar cell size was measured using ImageJ. […]

[1] = long term oral use in patients; cited from earlier work
[2] = continuous oral administration, irradiated mice, vs untreated controls; cited from earlier work
[3] = long term oral administration; cited from earlier work

SMILES: CC[C@@H]1C(=O)OC[C@@H]1Cc1cncn1C [pilocarpine]
- percentage of SOX2^+ cells (SOX2^+ cells of the SLG; 18 h post-injection): not significantly changed
- percentage of proliferating SOX2^+ cells (SOX2^+Ki67^+ cells) (SOX2^+ cells of the SLG; sacrificed at 18 h): increased
- salivary gland function [1]: improves salivary gland function
- salivary flow [2]: promoted salivary flow
- tumorigenicity [3]: not shown to be tumorigenic
